Experimental findings from patent publication US20130253019A1, “LYSOPHOSPHATIDIC ACID RECEPTOR ANTAGONISTS FOR THE TREATMENT OF CONDITIONS OR DISEASES OF THE EYE” (priority 2010, published 2013) are described below.

One assay addresses T1, Human LPA1 (Homo sapiens, UniProt Q92633).
T1 construct: the full-length cDNA for human LPA1 was obtained by PCR of the reverse transcription reaction; expressed in transfected cells
Briefly: LPA1 calcium flux assay. It counts as cell-based. The note with it: CHO cells expressing human LPA1, 10 nM LPA; read-out: Ca Flux IC50 LPA1. How it is done: A 1.1 kb cDNA encoding the human LPA1 receptor was cloned from human lung. Human lung RNA (Clontech Laboratories, Inc. USA) was reverse transcribed using the RETROscript kit (Ambion, Inc.) and the full-length cDNA for human LPA1 was obtained by PCR of the reverse transcription reaction. The nucleotide sequence of the cloned human LPA1 was determined by sequencing and confirmed to be identical to the published human LPA1 sequence (An et al. Biochem. Biophys. Res. Commun. 231:619 (1997). The cDNA was cloned into the pcDNA5/FRT expression plasmid and transfected in CHO cells using lipofectamine 2000 (Invitrogen Corp., USA). Clones stably expressing human LPA1 were selected using hygromycin and identified as cells that show Ca-influx in response to LPA.
(§1) Human LPA1 or LPA3 expressing CHO cells are seeded at 20,000-45,000 cells per well in a 96-well poly-D-lysine coated plate one or two days before the assay. Prior to the assay, the cells are washed once with PBS and then cultured in serum-free media for at least 6 hrs and up to 24 hrs. On the day of the assay, a calcium indicator dye (Calcium 5, Molecular Devices) in assay buffer (HBSS with Ca^2+ and Mg^2+ and containing 20 mM Hepes and 0.3% fatty-acid free human serum albumin) is added to each well and incubation continued for 1 hour at room temperature. 10 μl of test compounds in 2.5% DMSO are added to the cells and incubation continued at room temperature for 30 minutes. Cells are the stimulated by the addition of 10 nM LPA and intracellular Ca^2+ measured using the Flexstation 3 (Molecular Devices). IC50s are determined using Symyx Assay Explorer analysis of drug titration curves.

In another assay the target is T2, human LPA2 (Homo sapiens, UniProt Q9HBW0).
T2 construct: expressed in transfected cells; host or cells: B103 cells (transient), or alternatively BT-20 human breast cancer cells (endogenous)
T2 sequence (Q9HBW0 whole entry): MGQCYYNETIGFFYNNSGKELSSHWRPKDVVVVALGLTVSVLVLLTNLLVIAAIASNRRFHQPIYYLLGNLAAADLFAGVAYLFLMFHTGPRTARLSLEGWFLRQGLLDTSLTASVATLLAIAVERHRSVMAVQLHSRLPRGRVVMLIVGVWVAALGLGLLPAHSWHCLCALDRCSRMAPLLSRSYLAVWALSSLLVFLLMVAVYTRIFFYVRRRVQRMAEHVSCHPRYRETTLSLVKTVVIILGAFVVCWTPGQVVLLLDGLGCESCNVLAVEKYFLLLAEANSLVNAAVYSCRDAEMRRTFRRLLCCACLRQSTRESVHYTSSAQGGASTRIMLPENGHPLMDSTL
The assay is described as follows: LPA2 calcium flux assay. Type of assay: cell-based. The note with it: BT-20 cells or B103 cells transiently expressing human LPA2; read-out: Ca Flux IC50 LPA2. The method, then:
An expression vector encoding the human LPA2 cDNA was transiently transfected into B103 cells using Lipofectamine™ 2000 (Invitrogen) following the manufacturers instruction. On the day before the assay, 30,000-35,000 cells/well were seeded together with 0.2 μl lipofectamine 2000 and 0.2 μg human LPA2 expression vector in 96-well Poly-D-Lysine coated black-wall clear-bottom plates (BD BioCoat) in DMEM+10% FBS. Following an overnight culture, cells were washed once with PBS then cultured in serum-free media for 4 hours prior to start of the calcium flux assay.
LPA2 calcium flux is measured using at least one of two different assays. In one assay, BT-20 human breast cancer cells are seeded at 25,000-35,000 cells per well in 150 μl complete media on Poly-D-Lysine coated black-wall clear-bottom plates. Following an overnight culture, cells are washed once with PBS then serum starved for 4-6 hours prior to the assay. On the day of the assay, a calcium indicator dye (Calcium 5, Molecular Devices) in assay buffer (HBSS with Ca^2+ and Mg^2+ and containing 20 mM Hepes and 0.3% fatty-acid free human serum albumin) is added to each well and incubation continued for 15 minutes at 37° C. 25 μl of test compounds in 2.5% DMSO are added to the cells and incubation continued at 37° C. for 15-30 minutes. Cells are the stimulated by the addition of 100 nM LPA and intracellular Ca^2+ measured using the Flexstation 3 (Molecular Devices). IC50s are determined using Symyx Assay Explorer analysis of drug titration curves In the second assay, B103 cells transiently expressing huma LPA2 are serum starved for 4 hours. A calcium indicator dye (Calcium 4, Molecular Devices) in assay buffer (HBSS with Ca^2+ and Mg^2+ and containing 20 mM Hepes and 0.3% fatty-acid free human serum albumin) is then added to each well and incubation continued for 1 hour at 37° C. 10 μl of test compounds in 2.5% DMSO are added to the cells and incubation continued at room temperature for 30 minutes. Cells are the stimulated by the addition of 10 nM LPA and intracellular Ca^2+ measured using the Flexstation 3 (Molecular Devices). IC50s are determined using Symyx Assay Explorer analysis of drug titration curves.

In a further assay the target is T3, Human LPA3 (Homo sapiens, UniProt Q9UBY5).
T3 construct: The full-length cDNA fragment for human LPA3 was obtained by PCR from the vector; expressed in transfected cells; cDNA from the Missouri S&T cDNA Resource Center
T3 sequence (Q9UBY5 1-353): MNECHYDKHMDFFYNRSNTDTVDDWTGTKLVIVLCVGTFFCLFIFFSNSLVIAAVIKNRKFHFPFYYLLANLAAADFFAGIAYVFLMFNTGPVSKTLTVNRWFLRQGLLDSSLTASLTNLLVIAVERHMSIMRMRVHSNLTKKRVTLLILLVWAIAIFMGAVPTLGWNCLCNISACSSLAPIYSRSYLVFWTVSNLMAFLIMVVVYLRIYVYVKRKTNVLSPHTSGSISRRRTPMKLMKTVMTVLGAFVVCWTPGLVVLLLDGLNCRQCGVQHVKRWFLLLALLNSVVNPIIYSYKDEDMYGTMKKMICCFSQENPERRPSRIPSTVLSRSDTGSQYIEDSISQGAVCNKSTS
Briefly: LPA3 calcium flux assay. It counts as cell-based. The note with it: CHO cells expressing human LPA3, 10 nM LPA; read-out: Ca Flux IC50 LPA3. How it is done:
A vector containing the human LPA3 receptor cDNA was obtained from the Missouri S&T cDNA Resource Center (www.cdna.org). The full-length cDNA fragment for human LPA3 was obtained by PCR from the vector. The nucleotide sequence of the cloned human LPA3 was determined by sequencing and confirmed to be identical to the published human LPA3 sequence (NCBI accession number NM_012152). The cDNA was cloned into the pcDNA5/FRT expression plasmid and transfected in CHO cells using lipofectamine 2000 (Invitrogen Corp., USA). Clones stably expressing human LPA3 were selected using hygromycin and identified as cells that show Ca-influx in response to LPA.
as §1
A general note: Calcium flux is commonly read through the fluorescence of an indicator in the cells.

The next assay deals with LPA4 (Homo sapiens, UniProt Q99677). The assay is described as follows: LPA4 Ca flux assay. Type of assay: cell-based.
LPA4, sequence (Q99677 whole entry, species assumed): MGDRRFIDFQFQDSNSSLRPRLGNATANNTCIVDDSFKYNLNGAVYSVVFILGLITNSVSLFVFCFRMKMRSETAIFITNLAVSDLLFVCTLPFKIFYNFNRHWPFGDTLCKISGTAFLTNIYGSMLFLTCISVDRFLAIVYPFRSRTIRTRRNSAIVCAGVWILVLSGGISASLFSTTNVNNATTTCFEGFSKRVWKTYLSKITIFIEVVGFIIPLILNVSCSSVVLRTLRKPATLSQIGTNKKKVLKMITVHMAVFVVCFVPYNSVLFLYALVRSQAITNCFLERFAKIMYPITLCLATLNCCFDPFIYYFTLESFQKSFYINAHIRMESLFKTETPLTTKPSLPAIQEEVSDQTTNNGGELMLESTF
The target of a further assay is LPA5 (Homo sapiens, UniProt Q9H1C0). The assay is described as follows: LPA5 Ca flux assay. Type of assay: cell-based.
LPA5, sequence (Q9H1C0 whole entry, species assumed): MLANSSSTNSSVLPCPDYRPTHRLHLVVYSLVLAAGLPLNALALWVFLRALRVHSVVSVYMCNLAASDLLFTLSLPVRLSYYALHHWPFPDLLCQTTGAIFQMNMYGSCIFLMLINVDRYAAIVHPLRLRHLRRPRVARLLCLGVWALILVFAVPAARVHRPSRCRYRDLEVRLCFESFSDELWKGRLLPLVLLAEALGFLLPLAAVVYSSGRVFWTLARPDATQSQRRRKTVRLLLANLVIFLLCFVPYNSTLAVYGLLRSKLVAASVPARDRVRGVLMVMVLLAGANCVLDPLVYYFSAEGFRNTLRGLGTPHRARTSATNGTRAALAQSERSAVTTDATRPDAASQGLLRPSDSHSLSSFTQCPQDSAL
In another assay the test system is CNV lesion. The note with it: po, 30 mg/kg, 336 h.

pIC50: −log10 of the molar value.

What is called pIC50 is the negative decadic logarithm of the IC50, by convention in mol/L.

T1 sequence (Q92633 whole entry): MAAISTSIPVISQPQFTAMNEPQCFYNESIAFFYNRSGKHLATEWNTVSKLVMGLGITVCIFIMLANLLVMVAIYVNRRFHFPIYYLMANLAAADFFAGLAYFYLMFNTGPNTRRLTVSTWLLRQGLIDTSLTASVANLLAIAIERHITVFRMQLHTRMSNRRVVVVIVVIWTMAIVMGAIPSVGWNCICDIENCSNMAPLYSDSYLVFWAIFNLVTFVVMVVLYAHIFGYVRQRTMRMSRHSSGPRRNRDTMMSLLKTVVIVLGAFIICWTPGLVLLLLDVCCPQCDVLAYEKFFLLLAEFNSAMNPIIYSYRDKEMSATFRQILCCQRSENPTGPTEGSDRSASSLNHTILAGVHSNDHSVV

For `Cc1noc(-c2ccc(-c3ccc(C4(c5nc(=O)o[nH]5)CC4)cc3)cc2)c1NC(=O)O[C@H](C)c1ccccc1` [Compound G, (3-Methyl-5-{4′-[1-(5-oxo-2,5-dihydro-[1,2,4]oxadiazol-3-yl)-cyclopropyl]-biphenyl-4-yl}-isoxazol-4-yl)-carbamic acid (R)-1-phenyl-ethyl ester], the pIC50 was more than 6.70 at Human LPA1; less than 6.00 at human LPA2; less than 6.00 at Human LPA3; less than 6.00 against LPA4; less than 6.00 at LPA5.
Consider `Cc1noc(-c2ccc(-c3ccc(C4(C(=O)NS(C)(=O)=O)CC4)cc3)cc2)c1NC(=O)O[C@H](C)c1ccccc1` [Compound D, {5-[4′-(1-Methanesulfonylaminocarbonyl-cyclopropyl)-biphenyl-4-yl]-3-methyl-isoxazol-4-yl}-carbamic acid (R)-1-phenyl-ethyl ester], for which the pIC50 at Human LPA1 is more than 6.70; on human LPA2, 6.00 to 6.70; at Human LPA3, less than 6.00; on LPA4, less than 6.00; on LPA5, less than 6.00.
`Cc1noc(-c2ccc(-c3ccc(C4(C(=O)O)CC4)cc3)cc2)c1NC(=O)O[C@H](C)c1ccccc1Cl` [Compound E, 1-(4′-{4-[(R)-1-(2-Chloro-phenyl)-ethoxycarbonylamino]-3-methyl-isoxazol-5-yl}-biphenyl-4-yl)-cyclopropanecarboxylic acid]: the negative-log IC50 (pIC50) was more than 6.70 at Human LPA1, less than 6.00 on human LPA2, 6.00 to 6.70 on Human LPA3 and less than 6.00 against LPA5.
Turning to `Cc1noc(-c2ccc(-c3ccc(C4(C(=O)O)CC4)cc3)cc2)c1NC(=O)O[C@H](C)c1ccccc1` [Compound B, (R)-1-(4′-(3-methyl-4-((1-phenylethoxy)carbonylamino)isoxazol-5-yl)biphenyl-4-yl)cyclopropanecarboxylic acid], the pIC50 on Human LPA1 is more than 6.70; on human LPA2, less than 6.00; on Human LPA3 it was less than 6.00; on LPA4, less than 6.00; on LPA5, less than 6.00. Moreover, in the assay on CNV lesion, the “decrease of CNV lesion volume” value is on record as 11%.
As for `Cc1noc(-c2ccc(-c3ccc(CC(=O)O)cc3)cc2)c1NC(=O)O[C@H](C)c1ccccc1` [Compound A, (R)-2-(4′-(3-methyl-4-((1-phenylethoxy)carbonylamino)isoxazol-5-yl)biphenyl-4-yl)acetic acid], the pIC50 was more than 6.70 at Human LPA1; less than 6.00 at human LPA2; less than 6.00 at Human LPA3; less than 6.00 against LPA4; less than 6.00 on LPA5.
With `C[C@@H](OC(=O)Nc1cnoc1-c1ccc(-c2ccc(C3(C(=O)O)CC3)cc2)cc1)c1ccccc1` [Compound F, 1-{4′-[4-((R)-1-Phenyl-ethoxycarbonylamino)-isoxazol-5-yl]-biphenyl-4-yl}-cyclopropanecarboxylic acid], the results for the pIC50 on Human LPA1, at Human LPA3 and on LPA4 were more than 6.70, less than 6.00 and less than 6.00, respectively.
For the compound `Cc1noc(-c2ccc(-c3ccc(CC(=O)O)cc3)cc2)c1NC(=O)O[C@H](C)c1ccccc1Cl` [Compound C, (R)-2-(4′-(4-((1-(2-chlorophenyl)ethoxy)carbonylamino)-3-methylisoxazol-5-yl)biphenyl-4-yl)acetic acid], the pIC50 at Human LPA1 is more than 6.70; at human LPA2, less than 6.00; on Human LPA3, less than 6.00; against LPA4 it was less than 6.00; at LPA5 it was less than 6.00.
On to `Cc1noc(-c2ccc(-c3ccc(C4(c5nnn[nH]5)CC4)cc3)cc2)c1NC(=O)O[C@H](C)c1ccccc1` [Compound H, (3-Methyl-5-{4′-[1-(1H-tetrazol-5-yl)-cyclopropyl]-biphenyl-4-yl}-isoxazol-4-yl)-carbamic acid (R)-1-phenyl-ethyl ester], for which the pIC50 on Human LPA1 is more than 6.70; on human LPA2, less than 6.00; on Human LPA3, less than 6.00; on LPA4 it was less than 6.00; against LPA5 it was less than 6.00.
